# Legend:
# Aspergillus niger = assay: USP <51> AET in cosmetic cream/composition; assay type: cell-based; settings: 10% MSM in cosmetic cream without preservative, 48 hrs-28 days
# Chlorella minutissima = assay: Algal growth by percent transmittance at 750 nm; assay type: cell-based
# Experimental: Two species of Chlorella were examined for growth—Chlorella sorokiniana a freshwater species and Chlorella minutissima a marine species. […] Growth was measured on day 0, 1, 2, 3, 4, 5, 6, 7, 8, 9 and 10. […] The following media were purchased from UTEX Culture Collection of Algae: Enriched Salt Water Medium and Volvox Dextrose Medium.
# The algae were grown for 48 hours in the appropriate medium. The initial suspension was enumerated for each alga and is referred to as the starting inoculums. Chlorella sorokiniana was at 381 million cells per milliliter and Chlorella minutissima was at 19 million cells per milliliter. One milliliter of the algal solution was placed into 9 mLs of medium and mixed by vortexing. […] The tube of algae and MSM were incubated at room temperature with exposure to sunlight. […] Each dilution of MSM for each organism was set up in and analyzed in triplicate for each time interval measured. The samples were measured by percent transmittance on a UV/VIS spectrophotometer at wavelength 750 nm. The medium stock was tested for percent transmittance background levels at every time interval were measured. The lower percent transmittance indicated a higher growth factor.
substance,measurement,setting,value
Methylsulfonylmethane [MSM],AET microorganism count,Aspergillus niger; 48 hours after inoculation,8 × 10^3
same,AET microorganism count,Aspergillus niger; 14 days after inoculation,6 × 10^3
same,AET microorganism count,Aspergillus niger; 28 days after inoculation,5 × 10^2
same,"Growth, percent transmittance at 750 nm","Chlorella minutissima; MSM 0.5%, Sample Day 0",93.5%
same,"Growth, percent transmittance at 750 nm","Chlorella minutissima; MSM 0.5%, Sample Day 1",70.1%
same,"Growth, percent transmittance at 750 nm","Chlorella minutissima; MSM 0.5%, Sample Day 2",45.4%
same,"Growth, percent transmittance at 750 nm","Chlorella minutissima; MSM 0.5%, Sample Day 3",32.1%
same,"Growth, percent transmittance at 750 nm","Chlorella minutissima; MSM 0.5%, Sample Day 4",27.6%
same,"Growth, percent transmittance at 750 nm","Chlorella minutissima; MSM 0.5%, Sample Day 5",26.6%
same,"Growth, percent transmittance at 750 nm","Chlorella minutissima; MSM 0.5%, Sample Day 6",25.1%
same,"Growth, percent transmittance at 750 nm","Chlorella minutissima; MSM 0.5%, Sample Day 7",23.6%
same,"Growth, percent transmittance at 750 nm","Chlorella minutissima; MSM 0.5%, Sample Day 8",22.8%
same,"Growth, percent transmittance at 750 nm","Chlorella minutissima; MSM 0.5%, Sample Day 9",20.4%
same,"Growth, percent transmittance at 750 nm","Chlorella minutissima; MSM 0.5%, Sample Day 10",18.9%
same,"Growth, percent transmittance at 750 nm","Chlorella minutissima; MSM 1.0%, Sample Day 0",91.1%
same,"Growth, percent transmittance at 750 nm","Chlorella minutissima; MSM 1.0%, Sample Day 1",80.5%
same,"Growth, percent transmittance at 750 nm","Chlorella minutissima; MSM 1.0%, Sample Day 2",40.0%
same,"Growth, percent transmittance at 750 nm","Chlorella minutissima; MSM 1.0%, Sample Day 3",31.0%
same,"Growth, percent transmittance at 750 nm","Chlorella minutissima; MSM 1.0%, Sample Day 4",27.9%
same,"Growth, percent transmittance at 750 nm","Chlorella minutissima; MSM 1.0%, Sample Day 5",26.5%
same,"Growth, percent transmittance at 750 nm","Chlorella minutissima; MSM 1.0%, Sample Day 6",25.4%
same,"Growth, percent transmittance at 750 nm","Chlorella minutissima; MSM 1.0%, Sample Day 7",24.4%
same,"Growth, percent transmittance at 750 nm","Chlorella minutissima; MSM 1.0%, Sample Day 8",23.7%
same,"Growth, percent transmittance at 750 nm","Chlorella minutissima; MSM 1.0%, Sample Day 9",21.0%
same,"Growth, percent transmittance at 750 nm","Chlorella minutissima; MSM 1.0%, Sample Day 10",19.4%
same,"Growth, percent transmittance at 750 nm","Chlorella minutissima; MSM 5.0%, Sample Day 0",68.9%
same,"Growth, percent transmittance at 750 nm","Chlorella minutissima; MSM 5.0%, Sample Day 1",87.4%
same,"Growth, percent transmittance at 750 nm","Chlorella minutissima; MSM 5.0%, Sample Day 2",76.5%
same,"Growth, percent transmittance at 750 nm","Chlorella minutissima; MSM 5.0%, Sample Day 3",62.0%
same,"Growth, percent transmittance at 750 nm","Chlorella minutissima; MSM 5.0%, Sample Day 4",52.9%
same,"Growth, percent transmittance at 750 nm","Chlorella minutissima; MSM 5.0%, Sample Day 5",52.2%
same,"Growth, percent transmittance at 750 nm","Chlorella minutissima; MSM 5.0%, Sample Day 6",50.7%
same,"Growth, percent transmittance at 750 nm","Chlorella minutissima; MSM 5.0%, Sample Day 7",51.0%
same,"Growth, percent transmittance at 750 nm","Chlorella minutissima; MSM 5.0%, Sample Day 8",51.9%
same,"Growth, percent transmittance at 750 nm","Chlorella minutissima; MSM 5.0%, Sample Day 9",47.1%
same,"Growth, percent transmittance at 750 nm","Chlorella minutissima; MSM 5.0%, Sample Day 10",44.1%
same,"Growth, percent transmittance at 750 nm","Chlorella minutissima; MSM 10.0%, Sample Day 0",49.6%
same,"Growth, percent transmittance at 750 nm","Chlorella minutissima; MSM 10.0%, Sample Day 1",49.2%
same,"Growth, percent transmittance at 750 nm","Chlorella minutissima; MSM 10.0%, Sample Day 2",50.8%
same,"Growth, percent transmittance at 750 nm","Chlorella minutissima; MSM 10.0%, Sample Day 3",51.9%
same,"Growth, percent transmittance at 750 nm","Chlorella minutissima; MSM 10.0%, Sample Day 4",52.0%
same,"Growth, percent transmittance at 750 nm","Chlorella minutissima; MSM 10.0%, Sample Day 5",51.9%
same,"Growth, percent transmittance at 750 nm","Chlorella minutissima; MSM 10.0%, Sample Day 6",54.9%
same,"Growth, percent transmittance at 750 nm","Chlorella minutissima; MSM 10.0%, Sample Day 7",56.1%
same,"Growth, percent transmittance at 750 nm","Chlorella minutissima; MSM 10.0%, Sample Day 8",58.6%
same,"Growth, percent transmittance at 750 nm","Chlorella minutissima; MSM 10.0%, Sample Day 9",41.4%
same,"Growth, percent transmittance at 750 nm","Chlorella minutissima; MSM 10.0%, Sample Day 10",36.7%
same,"Growth, percent transmittance at 750 nm","Chlorella minutissima; MSM 20.0%, Sample Day 0",30.0%
same,"Growth, percent transmittance at 750 nm","Chlorella minutissima; MSM 20.0%, Sample Day 1",33.8%
same,"Growth, percent transmittance at 750 nm","Chlorella minutissima; MSM 20.0%, Sample Day 2",51.1%
same,"Growth, percent transmittance at 750 nm","Chlorella minutissima; MSM 20.0%, Sample Day 3",54.8%
same,"Growth, percent transmittance at 750 nm","Chlorella minutissima; MSM 20.0%, Sample Day 4",57.3%
same,"Growth, percent transmittance at 750 nm","Chlorella minutissima; MSM 20.0%, Sample Day 5",57.5%
same,"Growth, percent transmittance at 750 nm","Chlorella minutissima; MSM 20.0%, Sample Day 6",57.4%
same,"Growth, percent transmittance at 750 nm","Chlorella minutissima; MSM 20.0%, Sample Day 7",57.1%
same,"Growth, percent transmittance at 750 nm","Chlorella minutissima; MSM 20.0%, Sample Day 8",55.8%
same,"Growth, percent transmittance at 750 nm","Chlorella minutissima; MSM 20.0%, Sample Day 9",45.1%
same,"Growth, percent transmittance at 750 nm","Chlorella minutissima; MSM 20.0%, Sample Day 10",30.2%
same,"Growth, percent transmittance at 750 nm","Chlorella minutissima; MSM […], Sample Day 0",82.8%
same,"Growth, percent transmittance at 750 nm","Chlorella minutissima; MSM […], Sample Day 1",75.1%
same,"Growth, percent transmittance at 750 nm","Chlorella minutissima; MSM […], Sample Day 2",59.5%
same,"Growth, percent transmittance at 750 nm","Chlorella minutissima; MSM […], Sample Day 3",45.4%
same,"Growth, percent transmittance at 750 nm","Chlorella minutissima; MSM […], Sample Day 4",33.6%
same,"Growth, percent transmittance at 750 nm","Chlorella minutissima; MSM […], Sample Day 5",32.4%
same,"Growth, percent transmittance at 750 nm","Chlorella minutissima; MSM […], Sample Day 6",30.0%
same,"Growth, percent transmittance at 750 nm","Chlorella minutissima; MSM […], Sample Day 7",28.6%
same,"Growth, percent transmittance at 750 nm","Chlorella minutissima; MSM […], Sample Day 8",27.7%
